# Results as given in patent EP4745136A1, “PROTEIN TYROSINE PHOSPHATASE INHIBITOR, COMPOSITION COMPRISING SAME, AND MEDICAL USE THEREOF” (Shenzhen Zhongge Biological Technology Co., Ltd., priority 2023, dated 2025).
# Experiments:
# B16F10 cells = test: B16F10 mIFNγ-induced cell growth inhibition assay (CTG); format: cell-based
# Procedure: 40 µL (150 cells/well) of B16F10 cells (source ATCC Cat#CRL-6475) were inoculated into a 384-well plate, and the compounds were transferred to the 384-well plate containing cells using EHCO. One group of cells was added with 10 µL of complete medium (RPMI 1640 medium+10% FBS) without mIFNγ, one group was added with 10 µL of complete medium containing mIFNγ (source R&D Cat#485-MI/CF, final concentration 25 ng/ml), and different concentrations of compounds (DMSO content 0.5%) were added to the reaction system. The cell culture plates were incubated at 37 °C in 5% CO2 for 96 h. 25 µL of CTG was added, Envision was used for reading, the cell growth inhibition IC50 value (Cell IC50) was fitted by nonlinear regression analysis using a four-parameter logistic equation with DMSO/mIFNγ as the negative control and [drawing 152] as the positive control.
# PTPN2 = molecular target: T1, PTPN2 (Homo sapiens, UniProt P17706); test: PTPN2 inhibitory activity assay (HTRF); format: biochemical; conditions: PTPN2 final concentration 1 nM, substrate 1 µM, 40 min at room temperature
# T1 construct: purchased Sino biological 10570-H20B
# T1 sequence (P17706 1-415): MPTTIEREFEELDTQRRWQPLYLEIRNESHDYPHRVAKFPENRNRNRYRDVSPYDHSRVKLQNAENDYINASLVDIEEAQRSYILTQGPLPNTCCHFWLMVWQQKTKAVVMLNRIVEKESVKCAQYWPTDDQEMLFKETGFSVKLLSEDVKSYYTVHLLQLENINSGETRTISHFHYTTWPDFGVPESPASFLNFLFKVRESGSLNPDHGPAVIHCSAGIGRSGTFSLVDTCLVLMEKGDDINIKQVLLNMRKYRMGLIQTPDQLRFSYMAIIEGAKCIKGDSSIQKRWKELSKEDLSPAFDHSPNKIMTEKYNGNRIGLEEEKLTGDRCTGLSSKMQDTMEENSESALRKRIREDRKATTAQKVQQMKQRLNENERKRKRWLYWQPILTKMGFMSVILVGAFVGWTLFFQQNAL
# Procedure: The present invention employs HTRF assay to characterize the inhibitory activity of compounds against PTPN2. The specific experimental process was as follows: compounds were transferred to a 384-well plate (PE# 6007290) using ECHO, and enzymatic reaction buffer (50 mM HEPES pH 7.5, 10 mM EDTA,0.01% Tween 20, 2 mM DTT) was prepared. PTPN2 (Sino biological #10570-H20B) was diluted in the reaction buffer, PTPN2 (final concentration 1 nM) was added and incubated with the compound at room temperature for 10 min, then the substrate (final concentration 1 µM) (biotin-(NH-CH2-CH2-O-CH2-CH2-O-CH2-CO)-T-R-D-I-(PY)-E-T-D-Y-Y-R-K-K-NH2) (Genscript) was added, and the reaction was terminated by adding a quencher after incubation at room temperature for 40 min. A final concentration of 10 nM Eu-anti-P (PY20) antibody (Cisbio#AD0066) and 15 nM APC-Streptavidin (Cisbio#AD0201) was added and incubated at room temperature for 1 hour. The fluorescence values of the reacted 384-well plates were read at 620 nm and 665 nm using Envision, and the IC50 value of inhibiting PTPN2 enzyme activity (PTPN 2 IC50) was fitted by nonlinear regression analysis of a four-parameter logistic equation.
# [1] = Mus musculus, B16-F10, 96 h, B16F10 cells with mIFNγ final concentration 25 ng/ml, CTG readout
# [2] = Mus musculus, B16-F10; B16F10 cells with mIFNγ final concentration 25 ng/ml, 96 h, CTG readout
# [3] = B16F10 cells with mIFNγ final concentration 25 ng/ml, 96 h, CTG readout
GI50 (B16F10 cells; [2]),SMILES,GI50 (B16F10 cells; [1]),IC50 (PTPN2),GI50 (B16F10 cells; [3])
–,CC(C)(CCN[C@H]1Cc2c(cc(O)c(N3CC(=O)NS3(=O)=O)c2F)C2CC21)C(F)(F)F (some centres unmarked) [Compound 9],1000 to 10000 nM,≤ 20 nM,–
–,CC(C)CCNCC1Cc2cc(O)c(N3CC(=O)NS3(=O)=O)c(F)c2/C1=C\F (racemic) [Compound 7],10000 to 100000 nM,20 to 100 nM,–
1000 to 10000 nM,CC(C)(C)CCN[C@H]1Cc2c(cc(O)c(N3CC(=O)NS3(=O)=O)c2F)C2CC21 (some centres unmarked) [Compound 10],–,≤ 20 nM,–
1000 to 10000 nM,O=C1CN(c2c(O)cc3c(c2F)C[C@H](NCCC2CCCC2)C2CC32)S(=O)(=O)N1 (some centres unmarked) [Compound 17],–,≤ 20 nM,–
–,CC(C)CCNCC1Cc2cc(O)c(N3CC(=O)NS3(=O)=O)c(F)c2/C1=C/F (racemic) [Compound 4],1000 to 10000 nM,≤ 20 nM,–
10000 to 100000 nM,O=C1CN(c2c(O)cc3c(c2F)C[C@H](NCCC2CCCCC2)C2CC32)S(=O)(=O)N1 (some centres unmarked) [Compound 11],–,≤ 20 nM,–
–,"CC(C)CCN[C@H]1Cc2c(cc(O)c(N3CC(=O)NS3(=O)=O)c2F)C2CC21 (single isomer, unassigned) [Compound 3]",–,≤ 20 nM,≤ 1000 nM
–,O=C1CN(c2c(O)cc3c(c2F)C[C@H](NCCCC(F)(F)F)C2CC32)S(=O)(=O)N1 (some centres unmarked) [Compound 8],≤ 1000 nM,≤ 20 nM,–
–,"CC(C)CCNCC1Cc2cc(O)c(N3CC(=O)NS3(=O)=O)c(F)c2/C1=C/F (single isomer, unassigned) [Compound 5]",–,100 to 500 nM,10000 to 100000 nM
–,CC(C)CCN[C@H]1Cc2c(cc(O)c(N3CC(=O)NS3(=O)=O)c2F)C2CC21 (some centres unmarked) [Compound 1],1000 to 10000 nM,≤ 20 nM,–
–,"CC(C)CCNCC1Cc2cc(O)c(N3CC(=O)NS3(=O)=O)c(F)c2/C1=C/F (single isomer, unassigned) [Compound 6]",–,≤ 20 nM,≤ 1000 nM
–,"CC(C)CCN[C@H]1Cc2c(cc(O)c(N3CC(=O)NS3(=O)=O)c2F)C2CC21 (single isomer, unassigned) [Compound 2]",–,100 to 500 nM,10000 to 100000 nM
1000 to 10000 nM,O=C1CN(c2c(O)cc3c(c2F)C[C@H](NCC2CCCCO2)C2CC32)S(=O)(=O)N1 (some centres unmarked) [Compound 16],–,100 to 500 nM,–
